Assay results taken from patent US20220218664A1, “DRUG AND METHOD FOR TREATING OR PREVENTING COMPLICATIONS FROM DIABETES, USING SAID DRUG” (TMS Co., Ltd., priority 2019, published 2022).
Values joined by “and” are separate entries in the source; they are usually repeats but may differ in a detail not shown here. Identical values can stand only once.

Assays:
[1] = system: streptozotocin-induced diabetic mice; assay: Hind plantar blood flow (laser perfusion imager); type: in vivo, C57BL/6J male mice
Description: (§1) 9-week-old C57BL/6J male mice were purchased and familiarized with an animal facility for 1 week. 200 mg/kg of streptozotocin (streptozotocin; STZ) was administered […] into the peritoneal cavity of 10-week-old mice to prepare streptozotocin-induced diabetic mice (hereinafter also referred to as “STZ administration week 0”). One week after the administration of streptozotocin, blood was collected from the tail vein of the mice, and the blood glucose level (BS) was measured using an automatic blood glucose measuring device (product name: Medisafe (trademark) Mini GR-102, made by Terumo (Co)). Mice having a blood glucose level of 400 mg/dL or more were determined to be diabetic mice.
(§2) The SMTP-44D groups, the edaravone group, and the pregabalin group were administered SMTP-44D (0.3 mg/kg, 3 mg/kg, or 30 mg/kg doses, respectively), edaravone (10 mg/kg dose), or pregabalin (10 mg/kg dose) into the peritoneal cavity once a day for 3 consecutive weeks from the day following the first week to the fourth week after STZ administration.
The hind plantar blood flows (perfusion unit: PU) of the above-mentioned STZ group, SMTP-44D groups, edaravone group, pregabalin group, and control group mice were measured under isoflurane anesthesia using a full-field laser perfusion imager.

[2] = system: streptozotocin-induced diabetic mice; assay: Von Frey test: evaluating mechanical stimulus; type: in vivo, C57BL/6J male mice
Description: as §1, §2
The above-mentioned STZ group, SMTP-44D groups, edaravone group, pregabalin group, and control group mice were put in grid-like boxes, respectively, and were familiarized for one hour. After the familiarization, by using a Dynamic Plantar Aesthesiometer (tactometer) (manufactured by UGO BASILE Inc.), 1 g/s (that, pressurization increased by 1 g per second) of stimulation was imparted to the hind legs of these mice to measure mechanical thresholds (g) from the start of stimulation to the time when the mice withdrew their legs. The measurements were conducted for both hind legs three times at intervals of three minutes or longer, respectively. A mean value of three mechanical thresholds (g) was calculated for 1 mouse, and then a mean value of the 12 mice for the respective groups was found.

[3] = system: streptozotocin-induced diabetic mice; assay: Sciatic nerve conduction velocity; type: in vivo, C57BL/6J male mice; conditions: 4th week
Description: as §1, §2
(§3) Sciatic nerves of the above-mentioned STZ group, SMTP-44D groups, edaravone group, pregabalin group, and control group mice on the 4th week were exposed under isoflurane anesthesia, and then, using the full-field laser perfusion imager, their sciatic nerve blood flows (perfusion unit: PU) were measured. After the sciatic nerve blood flows were measured, a voltage was output from a PowerLab through the […] to impart an electrical stimulus to the sciatic nerves using needle electrodes. The electrical stimulus went through the Analog Stimulus Isolator via recording electrodes attached to the gastrocnemius and was input into the PowerLab, and thus neuromuscular function response curves were measured. The sciatic nerves were stimulated between two points at 8-mm intervals. The sciatic nerve conduction velocity (m/s) was calculated by dividing the […]. The sciatic nerve blood flow and sciatic nerve conduction velocity were measured using a Hot-1 small-sized heating controller and small-sized body temperature retention device (model number: […]-1), maintaining the rectal temperature at 37° C. The measurement results are described in Table 11.

[4] = system: streptozotocin-induced diabetic mice; assay: Sciatic nerve blood flow; type: in vivo, C57BL/6J male mice; conditions: 4th week
Description: as §1, §2, §3

[5] = system: diabetic nephropathy model mice; assay: Serum creatinine; conditions: 30 mg/kg i.p. once every two days for 10 weeks; 16 weeks old
[6] = system: diabetic nephropathy model mice; assay: Urinary albumin; conditions: 30 mg/kg i.p. once every two days for 10 weeks; 16 weeks old
[7] = system: diabetic nephropathy model mice; assay: Blood glucose level in diabetic nephropathy model mice; type: in vivo, Male db/db mice; conditions: 30 mg/kg i.p. once every two days for 10 weeks; 16 weeks old
[8] = Body weight in diabetic nephropathy model mice; type: in vivo, Male db/db mice; conditions: 30 mg/kg i.p. once every two days for 10 weeks; 16 weeks old
[9] = system: diabetic nephropathy model mice; assay: Urine volume (24 h, metabolic cage); type: in vivo, Male db/db mice; conditions: 30 mg/kg i.p. once every two days for 10 weeks; 16 weeks old; 24 h urine
[10] = 10 mg/kg i.p. once a day, 0th week (before dosing)
[11] = 10 mg/kg i.p. once a day, 0th week (before dosing), listed as pregabalin
[12] = 10 mg/kg i.p. once a day, 1st week (before dosing)
[13] = 10 mg/kg i.p. once a day, 1st week (before dosing), listed as pregabalin
[14] = 10 mg/kg i.p. once a day, 2nd week
[15] = 10 mg/kg i.p. once a day, 2nd week, listed as pregabalin
[16] = 10 mg/kg i.p. once a day, 3rd week
[17] = 10 mg/kg i.p. once a day, 3rd week, listed as pregabalin
[18] = 10 mg/kg i.p. once a day, 4th week
[19] = 10 mg/kg i.p. once a day, 4th week, listed as pregabalin
[20] = 10 mg/kg i.p. once a day, listed as pregabalin
[21] = 0.3 mg/kg i.p. once a day, 0th week (before dosing)
[22] = 0.3 mg/kg i.p. once a day, 1st week (before dosing)
[23] = 0.3 mg/kg i.p. once a day, 2nd week
[24] = 0.3 mg/kg i.p. once a day, 3rd week
[25] = 0.3 mg/kg i.p. once a day, 4th week
[26] = 3 mg/kg i.p. once a day, 0th week (before dosing)
[27] = 3 mg/kg i.p. once a day, 1st week (before dosing)
[28] = 3 mg/kg i.p. once a day, 2nd week
[29] = 3 mg/kg i.p. once a day, 3rd week
[30] = 3 mg/kg i.p. once a day, 4th week
[31] = 30 mg/kg i.p. once a day, 0th week (before dosing)
[32] = 30 mg/kg i.p. once a day, 1st week (before dosing)
[33] = 30 mg/kg i.p. once a day, 2nd week
[34] = 30 mg/kg i.p. once a day, 3rd week
[35] = 30 mg/kg i.p. once a day, 4th week

## CC(C)C[C@H](CN)CC(=O)O [Pregabalin, pregabalin]
[1]; [10]
  Hind plantar blood flow: 214.2 ± 7.6 PU
[1]; [11]
  Hind plantar blood flow: 214.2±7.6 PU
[1]; [12]
  Hind plantar blood flow: 159.8 ± 6.3 PU
[1]; [13]
  Hind plantar blood flow: 159.8±6.3 PU
[1]; [14]
  Hind plantar blood flow: 144.7 ± 8.3 PU
[1]; [15]
  Hind plantar blood flow: 144.7±8.3 PU
[1]; [16]
  Hind plantar blood flow: 152.7 ± 9.5 PU
[1]; [17]
  Hind plantar blood flow: 152.7±9.5 PU
[1]; [18]
  Hind plantar blood flow: 151.2 ± 8.0 PU
[1]; [19]
  Hind plantar blood flow: 151.2±8.0 PU
[2]; [10]
  von Frey test mechanical threshold: 5.0 ± 0.2 g
[2]; [11]
  von Frey test mechanical threshold: 5.0 ± 0.2 g
[2]; [12]
  von Frey test mechanical threshold: 4.0 ± 0.1 g
[2]; [13]
  von Frey test mechanical threshold: 4.0 ± 0.1 g
[2]; [14]
  von Frey test mechanical threshold: 4.6 ± 0.2 g
[2]; [15]
  von Frey test mechanical threshold: 4.6 ± 0.2 g
[2]; [16]
  von Frey test mechanical threshold: 4.6 ± 0.2 g
[2]; [17]
  von Frey test mechanical threshold: 4.6 ± 0.2 g
[2]; [18]
  von Frey test mechanical threshold: 4.7 ± 0.2 g
[2]; [19]
  von Frey test mechanical threshold: 4.7 ± 0.2 g
[3]; 10 mg/kg i.p. once a day
  Sciatic nerve conduction velocity: 55.9 ± 1.4 m/s
[3]; [20]
  Sciatic nerve conduction velocity: 55.9±1.4 m/s
[4]; 10 mg/kg i.p. once a day
  Sciatic nerve blood flow: 1114.1 ± 27.5 PU
[4]; [20]
  Sciatic nerve blood flow: 1114.1±27.5 PU

## CC(C)=CCCC(C)=CCCC1(C)Oc2c(c(O)cc3c2CN(C(C(=O)O)c2ccc(O)cc2)C3=O)CC1O (centres unmarked) [SMTP-44D]
[5]
  Serum creatinine: 0.4 ± 0.1 mg/dL
[6]
  Urinary albumin: 0.3 ± 0.1 mg/h/kg
[7]
  Blood glucose levels compared to the DN group: No significant changes
[1]; [21]
  Hind plantar blood flow: 199.8±9.8 PU
[1]; [22]
  Hind plantar blood flow: 150.7±9.4 PU
[1]; [23]
  Hind plantar blood flow: 152.9±8.7 PU
[1]; [24]
  Hind plantar blood flow: 141.0±8.7 PU
[1]; [25]
  Hind plantar blood flow: 132.3±6.6 PU
[1]; [26]
  Hind plantar blood flow: 210.7±14.1 PU
[1]; [27]
  Hind plantar blood flow: 154.8±12.8 PU
[1]; [28]
  Hind plantar blood flow: 169.3±7.9 PU
[1]; [29]
  Hind plantar blood flow: 161.3±11.8 PU
[1]; [30]
  Hind plantar blood flow: 162.1±9.8 PU
[1]; [31]
  Hind plantar blood flow: 201.4±6.8 PU
[1]; [32]
  Hind plantar blood flow: 142.7±7.1 PU
[1]; [33]
  Hind plantar blood flow: 185.0±8.4 PU
[1]; [34]
  Hind plantar blood flow: 234.7±11.2 PU
[1]; [35]
  Hind plantar blood flow: 214.9±12.2 PU
[2]; [21]
  von Frey test mechanical threshold: 5.2 ± 0.1 g
[2]; [22]
  von Frey test mechanical threshold: 4.1 ± 0.1 g
[2]; [23]
  von Frey test mechanical threshold: 3.5 ± 0.2 g
[2]; [24]
  von Frey test mechanical threshold: 3.7 ± 0.1 g
[2]; [25]
  von Frey test mechanical threshold: 3.6 ± 0.2 g
[2]; [26]
  von Frey test mechanical threshold: 4.9 ± 0.2 g
[2]; [27]
  von Frey test mechanical threshold: 4.2 ± 0.1 g
[2]; [28]
  von Frey test mechanical threshold: 4.0±0.1 g and 4.0 ± 0.1 ##− g
[2]; [29]
  von Frey test mechanical threshold: 3.9 ± 0.2 g
[2]; [30]
  von Frey test mechanical threshold: 4.0 ± 0.1 g
[2]; [31]
  von Frey test mechanical threshold: 4.9 ± 0.1 g
[2]; [32]
  von Frey test mechanical threshold: 3.9 ± 0.2 g
[2]; [33]
  von Frey test mechanical threshold: 5.4 ± 0.1 g
[2]; [34]
  von Frey test mechanical threshold: 5.3 ± 0.1 g
[2]; [35]
  von Frey test mechanical threshold: 5.2 ± 0.1 g
[8]
  Body weight compared to the DN group: No significant changes
[3]; 0.3 mg/kg i.p. once a day
  Sciatic nerve conduction velocity: 54.9±1.2 m/s
[3]; 3 mg/kg i.p. once a day
  Sciatic nerve conduction velocity: 56.9±2.8 m/s and 56.9 ± 28 m/s
[3]; 30 mg/kg i.p. once a day
  Sciatic nerve conduction velocity: 63.8±2.0 m/s
[4]; 0.3 mg/kg i.p. once a day
  Sciatic nerve blood flow: 1116.9±30.4 PU
[4]; 3 mg/kg i.p. once a day
  Sciatic nerve blood flow: 1187.1±31.4 PU
[4]; 30 mg/kg i.p. once a day
  Sciatic nerve blood flow: 1461.0±55.0 PU
[9]
  Urine volume: 1268.3 ± 137.4 µL
